Source: patent EP4692114A1, “CALCITONIN ANALOGUE, AND DERIVATIVE THEREOF AND USE THEREOF” (Hangzhou Sciwind Biosciences Co., Ltd., priority 2023, dated 2024)
pEC50: −log10 of the molar value. *1 amine or outer side, *2 acyl side, *3 side chain or, on linkers, in order; H or OH if unused. Where a SMILES comes first, the peptide text is derived from it. The star is where a group is joined. C20 diacid = O=C(O)CCCCCCCCCCCCCCCCCCC(=O)*; C18 diacid = O=C(O)CCCCCCCCCCCCCCCCC(=O)*; γGlu = O=C(O)[C@H](CCC(=O)[*:2])N[*:1]; βAsp = O=C(O)[C@H](CC(=O)[*:2])N[*:1]

Experiments:
[1] = Study of weight change and food consumption in rats; type: in vivo, SD (Sprague Dawley) rats; conditions: SD rats, subcutaneous, 10 nmol/kg
Text: SD (Sprague Dawley) rats weighing 200-250 g were used for this study. The rats were received at least 10-14 days before the study began such that they could accommodate to the experimental environment. After arrival, they were exposed to a reversed light/dark cycle (i.e., lights switched off in daytime and on in nighttime) for two weeks and were individually housed for the first week so as to ensure high data accuracy and test sensitivity. Throughout the acclimation and experiment period, the rats had free access to food and water. 5-8 rats were assigned to each testing group for the derivatives and were subcutaneously administered the derivatives at a dose of 10 nmol/kg or a vehicle, and the dosing timepoint was recorded for each group. After dosing, the rats were put back into cages where they were housed and could have access to food and water. Food consumption and weight change of the rats were recorded online or manually every 24 hours.

human amylin receptors = molecular target: T1, human amylin receptors (Homo sapiens, UniProt O60896+P30988); test: Luciferase assay of amylin (amylin receptor/CRE-luc cell line); type: cell-based; conditions: stably transfected amylin receptor/CRE-luc CHO cells (CHO-K1/Gal5/AMY3), 24 hours incubation, luciferase readout;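 also: agonist potency from luminescence of cAMP response element-driven luciferase, EC50 derived from a standard curve of signal versus compound concentration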
T1 sequence (P30988 25-474): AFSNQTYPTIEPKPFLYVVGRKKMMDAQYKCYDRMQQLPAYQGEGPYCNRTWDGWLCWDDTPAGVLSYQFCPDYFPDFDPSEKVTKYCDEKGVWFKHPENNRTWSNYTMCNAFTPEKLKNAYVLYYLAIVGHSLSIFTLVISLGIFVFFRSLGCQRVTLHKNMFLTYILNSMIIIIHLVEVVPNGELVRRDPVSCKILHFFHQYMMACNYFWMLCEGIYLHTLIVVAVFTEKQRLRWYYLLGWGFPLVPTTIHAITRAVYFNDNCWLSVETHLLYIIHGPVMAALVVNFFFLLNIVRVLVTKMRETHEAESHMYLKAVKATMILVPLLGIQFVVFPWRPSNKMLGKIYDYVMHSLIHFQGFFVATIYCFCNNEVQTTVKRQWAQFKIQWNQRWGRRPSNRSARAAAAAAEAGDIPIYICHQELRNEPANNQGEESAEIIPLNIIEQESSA
T1 sequence (O60896 24-148 partner): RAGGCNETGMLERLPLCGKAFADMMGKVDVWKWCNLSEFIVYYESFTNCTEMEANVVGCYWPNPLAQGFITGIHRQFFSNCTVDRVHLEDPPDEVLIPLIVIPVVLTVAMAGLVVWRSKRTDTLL

[2] = Heat accelerated stability assay under a neutral condition; type: physicochemical; conditions: pH about 7.4, 40°C; for Changes in characteristics or properties, 0d / Changes in characteristics or properties, 7d: 1 mg/mL, phosphate; for Concentration change (7d-0d)/%: Day 7 vs Day 0, reversed phase chromatography; for Purity Change% (7d-0d) / Purity Change% (26d-0d): purity from reversed phase chromatography-214 nm; for Purity Change% (7d-0d): Day 7 vs Day 0; for Purity Change% (26d-0d): Day 26 vs Day 0
Procedure: The lyophilized powder (1 mg/mL) of calcitonin analogues or derivatives prepared in accordance with the method of Example 1 were mixed with sodium dihydrogen phosphate (1.42 mg/mL) and dissolved in ultrapure water in the indicated mass-volume ratios. After adjusting pH to about 7.4 with hydrochloric acid/sodium hydroxide, the solution was filtered into a sterilized vial in a clean bench using a 0.22 µm sterile filter. The vial was then capped and placed into the stability test chamber at 40°C. Detections were made on Days 7 (7d) and 26 (26d), and during the assay, changes in the characteristics and properties of the polypeptides were observed and recorded. The sample was then centrifuged for 3 min at 10000 rpm at 4°C, and the supernatant was transferred to a liquid phase sample vial for detecting the concentration and purity of the polypeptides using liquid phase chromatography described as below, wherein the concentration of the polypeptide = peak area/injection volume/extinction coefficient/60×flow rate, and the purity of the polypeptide = target peak area/total peak area× 100%.
Conditions of the reversed phase chromatography Flow rate: 1.0 ml/min; Autosampler temperature: 15°C; Column temperature: 25°C; Detection wavelengths: 280 nm and 214 nm; Mobile phase A: 100% H2O+0.05% TFA; Mobile phase B: 100% ACN; and Gradient of elution listed in Table 4: Table 4. Listing of the gradient of elution in the liquid phase chromatography
Results were shown below in Tables 5, 6, and 7. A difference of more than 5% in content as compared with the initial value was typically assumed (for example, as prescribed by the Chinese Pharmacopeia (2020 Edition)) to be a significant change. Within a reasonable margin of error, a decrease of less than 1% from the initial value to the detected content is denoted as "no change" below. Table 5. Changes in characteristics or properties in the heat accelerated stability assay

For CC(C)C[C@H](NC(=O)[C@H](CCCNC(=N)N)NC(=O)CNC(=O)[C@H](CC(C)C)NC(=O)[C@@H](NC(=O)[C@H](C)NC(=O)[C@@H](NC(=O)[C@H](CO)NC(=O)[C@H](CC(C)C)NC(=O)[C@H](CCC(N)=O)NC(=O)[C@H](CO)NC(=O)[C@H](C)NC(=O)CC[C@H](NC(=O)CCCCCCCCCCCCCCCCCCC(=O)O)C(=O)O)[C@@H](C)O)C(C)C)C(=O)N[C@@H](CO)C(=O)N[C@@H](CCC(N)=O)C(=O)N[C@@H](CCC(=O)O)C(=O)N[C@@H](CC(C)C)C(=O)N[C@@H](Cc1c[nH]cn1)C(=O)N[C@@H](CCCNC(=N)N)C(=O)N[C@@H](CC(C)C)C(=O)N[C@@H](CCC(N)=O)C(=O)N[C@@H](CC(=O)O)C(=O)N[C@@H](CC(C)C)C(=O)N1CCC[C@H]1C(=O)N[C@@H](CCCNC(=N)N)C(=O)N[C@H](C(=O)N[C@@H](CC(=O)O)C(=O)N[C@H](C(=O)NCC(=O)N[C@@H](CO)C(=O)NCC(=O)N[C@@H](CO)C(=O)N1CCC[C@H]1C(N)=O)C(C)C)[C@@H](C)O [M18] ({C20 diacid-γGlu}-ASQLSTAVLGRLSQELHRLQDLPRTDVGSGSP-NH2), the “Effect on reducing food intake” value ([1]; accumulated food intake recorded every 24 hours (FIGs. 7 and 9)) was “particularly effective” and the “Effect on reducing body weight” value ([1]; recorded every 24 hours (FIGs. 6 and 8)) was “particularly effective”.

With CC(C)C[C@H](NC(=O)[C@H](CCCNC(=N)N)NC(=O)CNC(=O)[C@H](CC(C)C)NC(=O)[C@@H](NC(=O)[C@H](C)NC(=O)[C@@H](NC(=O)[C@H](CO)NC(=O)[C@H](CC(C)C)NC(=O)[C@H](CCC(N)=O)NC(=O)[C@H](CO)NC(=O)[C@H](C)NC(=O)CC[C@H](NC(=O)CCCCCCCCCCCCCCCCC(=O)O)C(=O)O)[C@@H](C)O)C(C)C)C(=O)N[C@@H](CO)C(=O)N[C@@H](CC(=O)O)C(=O)N[C@@H](CCC(=O)O)C(=O)N[C@@H](CC(C)C)C(=O)N[C@@H](Cc1c[nH]cn1)C(=O)N[C@@H](CCCNC(=N)N)C(=O)N[C@@H](CC(C)C)C(=O)N[C@@H](CCC(N)=O)C(=O)N[C@@H](CC(=O)O)C(=O)N[C@@H](Cc1ccc(O)cc1)C(=O)N1CCC[C@H]1C(=O)N[C@@H](CCCNC(=N)N)C(=O)N[C@H](C(=O)N[C@@H](CC(=O)O)C(=O)N[C@H](C(=O)NCC(=O)N[C@@H](CO)C(=O)NCC(=O)N[C@@H](CO)C(=O)N1CCC[C@H]1C(N)=O)C(C)C)[C@@H](C)O [M39] ({C18 diacid-γGlu}-ASQLSTAVLGRLSDELHRLQDYPRTDVGSGSP-NH2) the pEC50 (human amylin receptors) was 10.80, the “Changes in characteristics or properties, 0d” value (from here on “Changes … 0d”) [2] was “Clear” and the “Changes in characteristics or properties, 7d” value (“Changes … 7d” below) [2] was “Clear”. The “Concentration change (7d-0d)/%” value [2] was “No change (a decrease of less than 1% from the initial value to the detected content is denoted as "no change")”, the “Purity Change% (7d-0d)” value [2] was “No change (a decrease of less than 1% from the initial value to the detected content is denoted as "no change")” and the “Purity Change% (26d-0d)” value [2] was -3.3%.

With CC(C)C[C@H](NC(=O)[C@H](CCCNC(=N)N)NC(=O)CNC(=O)[C@H](CC(C)C)NC(=O)[C@@H](NC(=O)[C@H](C)NC(=O)[C@@H](NC(=O)[C@H](CO)NC(=O)[C@H](CC(C)C)NC(=O)[C@H](CCC(N)=O)NC(=O)[C@H](CO)NC(=O)[C@H](C)NC(=O)[C@H](CCC(=O)O)NC(=O)CCCCCCCCCCCCCCCCC(=O)O)[C@@H](C)O)C(C)C)C(=O)N[C@@H](CO)C(=O)N[C@@H](CC(=O)O)C(=O)N[C@@H](CCC(=O)O)C(=O)N[C@@H](CC(C)C)C(=O)N[C@@H](Cc1c[nH]cn1)C(=O)N[C@@H](CCCNC(=N)N)C(=O)N[C@@H](CC(C)C)C(=O)N[C@@H](CCC(N)=O)C(=O)N[C@@H](CC(=O)O)C(=O)N[C@@H](Cc1ccc(O)cc1)C(=O)N1CCC[C@H]1C(=O)N[C@@H](CCCNC(=N)N)C(=O)N[C@H](C(=O)N[C@@H](CC(=O)O)C(=O)N[C@H](C(=O)NCC(=O)N[C@@H](CO)C(=O)NCC(=O)N[C@@H](CO)C(=O)N1CCC[C@H]1C(N)=O)C(C)C)[C@@H](C)O [M42] ({C18 diacid}-EASQLSTAVLGRLSDELHRLQDYPRTDVGSGSP-NH2) the pEC50 (human amylin receptors) was 10.80, the “Changes … 0d” value [2] was “Clear” and the “Changes … 7d” value [2] was “Clear”. The “Concentration change (7d-0d)/%” value [2] was -3.344%, the “Purity Change% (7d-0d)” value [2] was “No change (a decrease of less than 1% from the initial value to the detected content is denoted as "no change")” and the “Purity Change% (26d-0d)” value [2] was -2.93%.

With CC(C)C[C@H](NC(=O)[C@H](CCCNC(=N)N)NC(=O)CNC(=O)[C@H](CC(C)C)NC(=O)[C@@H](NC(=O)[C@H](C)NC(=O)[C@@H](NC(=O)[C@H](CO)NC(=O)[C@H](CC(C)C)NC(=O)[C@H](CCC(N)=O)NC(=O)[C@H](CO)NC(=O)[C@H](C)NC(=O)C[C@H](NC(=O)CCCCCCCCCCCCCCCCCCC(=O)O)C(=O)O)[C@@H](C)O)C(C)C)C(=O)N[C@@H](CO)C(=O)N[C@@H](CC(=O)O)C(=O)N[C@@H](CCC(=O)O)C(=O)N[C@@H](CC(C)C)C(=O)N[C@@H](Cc1c[nH]cn1)C(=O)N[C@@H](CCCNC(=N)N)C(=O)N[C@@H](CC(C)C)C(=O)N[C@@H](CCC(N)=O)C(=O)N[C@@H](CC(=O)O)C(=O)N[C@@H](Cc1ccc(O)cc1)C(=O)N1CCC[C@H]1C(=O)N[C@@H](CCCNC(=N)N)C(=O)N[C@H](C(=O)N[C@@H](CC(=O)O)C(=O)N[C@H](C(=O)NCC(=O)N[C@@H](CO)C(=O)NCC(=O)N[C@@H](CO)C(=O)N1CCC[C@H]1C(N)=O)C(C)C)[C@@H](C)O [M43] ({C20 diacid-βAsp}-ASQLSTAVLGRLSDELHRLQDYPRTDVGSGSP-NH2) the pEC50 (human amylin receptors) was 10.77, the “Changes … 0d” value [2] was “Clear” and the “Changes … 7d” value [2] was “Clear”. The “Concentration change (7d-0d)/%” value [2] was “No change (a decrease of less than 1% from the initial value to the detected content is denoted as "no change")”, the “Purity Change% (7d-0d)” value [2] was “No change (a decrease of less than 1% from the initial value to the detected content is denoted as "no change")” and the “Purity Change% (26d-0d)” value [2] was -1.96%.

With CC(C)C[C@H](NC(=O)[C@H](CCCNC(=N)N)NC(=O)CNC(=O)[C@H](CC(C)C)NC(=O)[C@@H](NC(=O)[C@H](C)NC(=O)[C@@H](NC(=O)[C@H](CO)NC(=O)[C@H](CC(C)C)NC(=O)[C@H](CCC(N)=O)NC(=O)[C@H](CO)NC(=O)[C@H](C)NC(=O)[C@H](CC(=O)O)NC(=O)CCCCCCCCCCCCCCCCC(=O)O)[C@@H](C)O)C(C)C)C(=O)N[C@@H](CO)C(=O)N[C@@H](CC(=O)O)C(=O)N[C@@H](CCC(=O)O)C(=O)N[C@@H](CC(C)C)C(=O)N[C@@H](Cc1c[nH]cn1)C(=O)N[C@@H](CCCNC(=N)N)C(=O)N[C@@H](CC(C)C)C(=O)N[C@@H](CCC(N)=O)C(=O)N[C@@H](CC(=O)O)C(=O)N[C@@H](Cc1ccc(O)cc1)C(=O)N1CCC[C@H]1C(=O)N[C@@H](CCCNC(=N)N)C(=O)N[C@H](C(=O)N[C@@H](CC(=O)O)C(=O)N[C@H](C(=O)NCC(=O)N[C@@H](CO)C(=O)NCC(=O)N[C@@H](CO)C(=O)N1CCC[C@H]1C(N)=O)C(C)C)[C@@H](C)O [M44] ({C18 diacid}-DASQLSTAVLGRLSDELHRLQDYPRTDVGSGSP-NH2) the pEC50 (human amylin receptors) was 10.80, the “Changes … 0d” value [2] was “Clear” and the “Changes … 7d” value [2] was “Clear”. For the same molecule, the “Concentration change (7d-0d)/%” value [2] was -2.285%, the “Purity Change% (7d-0d)” value [2] was -1.15% and the “Purity Change% (26d-0d)” value [2] was -3.76%.
